Measurements published in patent US20160296499A1, “Spiroindoline Antiparasitic Derivatives” (ZOETIS SERVICES LLC, priority 2013, published 2016).
Where two headings read alike, the source gives them in different places.

Tests used:
[1] = target: T1, bovine vesicular acetylcholine transporter (VAChT) (Bos taurus, UniProt E1BK36); experiment: Radioligand Binding Assay; settings: Bovine binding Ki, CHO-K1 membranes with recombinant bovine VAChT, [3H]Compound X6 0.3 nM
T1 sequence (E1BK36 1-524): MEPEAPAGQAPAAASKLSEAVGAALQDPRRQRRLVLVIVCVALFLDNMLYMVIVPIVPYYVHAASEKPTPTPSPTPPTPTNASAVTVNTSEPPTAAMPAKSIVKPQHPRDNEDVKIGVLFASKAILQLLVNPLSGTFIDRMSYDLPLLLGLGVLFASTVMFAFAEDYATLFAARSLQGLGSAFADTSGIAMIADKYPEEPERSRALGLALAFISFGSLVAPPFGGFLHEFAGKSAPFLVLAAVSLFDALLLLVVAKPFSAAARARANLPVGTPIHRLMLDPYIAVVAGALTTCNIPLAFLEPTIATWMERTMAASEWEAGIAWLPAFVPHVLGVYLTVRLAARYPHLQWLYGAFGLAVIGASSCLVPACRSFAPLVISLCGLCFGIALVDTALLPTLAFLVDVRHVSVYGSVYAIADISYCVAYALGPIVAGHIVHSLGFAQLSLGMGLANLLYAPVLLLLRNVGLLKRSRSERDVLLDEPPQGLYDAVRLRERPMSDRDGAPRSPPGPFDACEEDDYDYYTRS
Experimental: To measure binding affinity, CHO-K1 cells recombinantly expressing the bovine VAChT was generated as a stable cell line and subsequently used to produce membrane preparations.
Radioligand binding assays were conducted in disposable polypropylene 96-well plates. VAChT competition assays were initiated by the addition of bovine recombinant membrane homogenate (50 μg/well) in assay buffer (50 mM Tris-HCl, 120 mM NaCl, 5 mM KCl, 1 mM MgCl, and 2 mM CaCl, pH 7.4) containing [^3H]Compound X6 (0.3 nM) with or without competing ligand. The assay was allowed to equilibrate for 120 minutes at room temperature, before being filtered onto GF/C unifilter plates pre-coated in 0.3% polyethylenimine (Perkin Elmer Life and Analytical Sciences, Boston, Mass.) with a Filtermate 96 harvester (PerkinElmer Life and Analytical Sciences). Filters were washed in ice-cold 50 mM Tris-HCl, pH 7.4 buffer and then counted for radioactivity in a TopCount microplate scintillation counter after addition of 50 μL Microscint 20 (PerkinElmer). Non-specific binding was measured in the presence of 10 μM Compound X6. Apparent dissociation constants (Ki values) from the competition experiments were calculated using an iterative nonlinear regression curve-fitting program (GraphPAD Prism 6.0 Software, San Diego, Calif.) and are reported in Table 2.

[2] = test system: Dirofilaria immitis microfilariae; experiment: Dirofilaria immitis, Microfilariae (DiMF) In Vitro Assay; settings: Dirofilaria immitis
Haemonchus contortus L3 = experiment: Haemonchus contortus, Larvae Stage 3 (HcL3) In Vitro Assay; settings: Haemonchus contortus
[3] = 72 h, read-out: Di MF, MEC, decrease in microfilariae motility by visual assessment, curve starting at 100 μM
[4] = 96 h, read-out: HcL3 MEC, Minimal Effective Concentration whereby worm motility is inhibited by approximately 70%, 37° C., tested 0.001-100 μM
[5] = 96 hours, 37° C., read-out: HcL3 MEC

Compound | Ki [1] | minimal effective concentration [2, 3] | minimal effective concentration (Haemonchus contortus L3; [4]) | minimal effective concentration ([2]; 72 hours, read-out: Di MF) | minimal effective concentration (Haemonchus contortus L3; [5])
O=C(NCc1ccnc(Cl)c1)N1CC2(CCN(C/C=C/c3ccc(C(F)(F)F)cc3)CC2)c2c1ccc(F)c2Cl [Example 164, (E)-4-chloro-N-((2-chloropyridin-4-yl)methyl)-5-fluoro-1′-(3-(4-(trifluoromethyl)phenyl)allyl)spiro[indoline-3,4′-piperidine]-1-carboxamide] | 0.311 µM | 5.3 µM | 12.4 µM | – | –
N#Cc1cccc2c1C1(CCN(C/C=C/c3ccc(Cl)cc3)CC1)CN2C(=O)NCc1ccnc(Cl)c1 [Example 165, (E)-1′-(3-(4-chlorophenyl)allyl)-N-((2-chloropyridin-4-yl)methyl)-4-cyanospiro[indoline-3,4′-piperidine]-1-carboxamide] | 0.0384 µM | 8.3 µM | 16.7 µM | – | –
N#Cc1c(F)ccc2c1C1(CCN(C/C=C/c3ccc(Cl)cc3)CC1)CN2C(=O)NCc1ccnc(Cl)c1 [Example 166, (E)-1′-(3-(4-chlorophenyl)allyl)-N-((2-chloropyridin-4-yl)methyl)-4-cyano-5-fluorospiro[indoline-3,4′-piperidine]-1-carboxamide] | 0.0435 µM | 1.5 µM | 23.5 µM | – | –
COc1ccc2c(c1)C1(CCN(C/C=C/c3ccc(Cl)c(Cl)c3)CC1)CN2C(=O)NCc1ccnc(Cl)c1 [Example 167, (E)-N-((2-chloropyridin-4-yl)methyl)-1′-(3-(3,4-dichlorophenyl)allyl)-5-methoxyspiro[indoline-3,4′-piperidine]-1-carboxamide] | 0.184 µM | – | – | 33 µM | 6.9 µM
COc1ccc(/C=C/CN2CCC3(CC2)CN(C(=O)NCc2ccnc(Cl)c2)c2ccc(C(F)(F)F)cc23)cc1 [Example 168, (E)-N-((2-chloropyridin-4-yl)methyl)-1′-(3-(4-methoxyphenyl)allyl)-5-(trifluoromethyl)spiro[indoline-3,4′-piperidine]-1-carboxamide] | 0.266 µM | – | – | 3.3 µM | 33 µM
O=C(NCc1ccnc(Cl)c1)N1CC2(CCN(C/C=C/c3ccc(Cl)cc3)CC2)c2cc(S(F)(F)(F)(F)F)ccc21 [Example 169, (E)-1′-(3-(4-chlorophenyl)allyl)-N-((2-chloropyridin-4-yl)methyl)-5-(pentafluorosulfide)spiro[indoline-3,4′-piperidine]-1-carboxamide] | 0.467 µM | 3.3 µM | 47.8 µM | – | –
O=C(NCc1ccnc(Cl)c1)N1CC2(CCN(C/C=C/c3ccc(C(F)(F)F)cc3)CC2)c2cc(C(F)(F)F)ccc21 [Example 170, (E)-N-((2-chloropyridin-4-yl)methyl)-5-(trifluoromethyl)-1′-(3-(4-(trifluoromethyl)phenyl)allyl)spiro[indoline-3,4′-piperidine]-1-carboxamide] | 0.716 µM | 5.7 µM | 57.4 µM | – | –
O=C(NCc1ccnc(Cl)c1)N1CC2(CCN(C/C=C/c3ccc(Cl)c(Cl)c3)CC2)c2cc(Cl)cc(Cl)c21 [Example 171, (E)-5,7-dichloro-N-((2-chloropyridin-4-yl)methyl)-1′-(3-(3,4-dichlorophenyl)allyl)spiro[indoline-3,4′-piperidine]-1-carboxamide] | 0.0209 µM | – | – | 7.6 µM | 69.1 µM
O=C(NCc1ccnc(Cl)c1)N1CC2(CCN(C/C=C/c3ccc(OC(F)(F)F)cc3)CC2)c2cc(C(F)(F)F)ccc21 [Example 172, (E)-N-((2-chloropyridin-4-yl)methyl)-1′-(3-(4-(trifluoromethoxy)phenyl)allyl)-5-(trifluoromethyl)spiro[indoline-3,4′-piperidine]-1-carboxamide] | 0.921 µM | 5.7 µM | 100 µM | – | –
O=C(NCc1ccnc(Cl)c1)N1CC2(CCN(C/C=C/c3ccc(Cl)cc3)CC2)c2c1ccc(F)c2C(F)(F)F [Example 173, (E)-1′-(3-(4-chlorophenyl)allyl)-N-((2-chloropyridin-4-yl)methyl)-5-fluoro-4-(trifluoromethyl)spiro[indoline-3,4′-piperidine]-1-carboxamide] | 0.465 µM | 5.7 µM | 100 µM | – | –
O=C(NCc1ccnc(Cl)c1)N1CC2(CCN(C/C=C/c3ccc(F)cc3)CC2)c2c(OC(F)(F)F)cccc21 [Example 174, (E)-N-((2-chloropyridin-4-yl)methyl)-1′-(3-(4-fluorophenyl)allyl)-4-(trifluoromethoxy)spiro[indoline-3,4′-piperidine]-1-carboxamide] | 1.5 µM | 4.4 µM | 100 µM | – | –
O=C(NCc1ccnc(C(F)(F)F)c1)N1CC2(CCN(C/C=C/c3ccc(F)cc3)CC2)c2cc(OC(F)(F)F)ccc21 [Example 175, (E)-1′-(3-(4-fluorophenyl)allyl)-5-(trifluoromethoxy)-N-((2-(trifluoromethyl)pyridin-4-yl)methyl)spiro[indoline-3,4′-piperidine]-1-carboxamide] | 0.452 µM | 3.3 µM | 24.5 µM | – | –
N#Cc1ccc(/C=C/CN2CCC3(CC2)CN(C(=O)NCc2ccnc(C(F)(F)F)c2)c2ccc(OC(F)(F)F)cc23)cc1 [Example 176, (E)-1′-(3-(4-cyanophenyl)allyl)-5-(trifluoromethoxy)-N-((2-(trifluoromethyl)pyridin-4-yl)methyl)spiro[indoline-3,4′-piperidine]-1-carboxamide] | 0.288 µM | 3.3 µM | 33 µM | – | –
O=C(NCc1ccnc(C(F)(F)F)c1)N1CC2(CCN(C/C=C/c3ccc(C(F)(F)F)cc3)CC2)c2cc(OC(F)(F)F)ccc21 [Example 177, (E)-5-(trifluoromethoxy)-1′-(3-(4-(trifluoromethyl)phenyl)allyl)-N-((2-(trifluoromethyl)pyridin-4-yl)methyl)spiro[indoline-3,4′-piperidine]-1-carboxamide] | 1.67 µM | 3.3 µM | 100 µM | – | –
O=C(NCc1ccnc(C(F)(F)F)c1)N1CC2(CCN(C/C=C/c3ccc(OC(F)(F)F)cc3)CC2)c2cc(OC(F)(F)F)ccc21 [Example 178, (E)-5-(trifluoromethoxy)-1′-(3-(4-(trifluoromethoxy)phenyl)allyl)-N-((2-(trifluoromethyl)pyridin-4-yl)methyl)spiro[indoline-3,4′-piperidine]-1-carboxamide] | 0.76 µM | 3.3 µM | 100 µM | – | –
O=C(NCc1ccnc(C(F)(F)F)c1)N1CC2(CCN(C/C=C/c3ccc(Cl)cc3)CC2)c2cc(OC(F)(F)F)ccc21 [Example 179, (E)-1′-(3-(4-chlorophenyl)allyl)-5-(trifluoromethoxy)-N-((2-(trifluoromethyl)pyridin-4-yl)methyl)spiro[indoline-3,4′-piperidine]-1-carboxamide] | 0.371 µM | – | – | 3.3 µM | 7.6 µM
O=C(NCc1ccnc(Cl)c1)N1CC2(CCN(C/C=C/c3ccc(OC(F)(F)F)cc3)CC2)c2cc(OC(F)(F)F)ccc21 [Example 180, (E)-N-((2-chloropyridin-4-yl)methyl)-5-(trifluoromethoxy)-1′-(3-(4-(trifluoromethoxy)phenyl)allyl)spiro[indoline-3,4′-piperidine]-1-carboxamide] | 0.437 µM | 10 µM | 10 µM | – | –
O=C(NCc1ccnc(Cl)c1)N1CC2(CCN(C/C=C/c3ccc(C(F)(F)F)cc3)CC2)c2cc(OC(F)(F)F)ccc21 [Example 181, (E)-N-((2-chloropyridin-4-yl)methyl)-5-(trifluoromethoxy)-1′-(3-(4-(trifluoromethyl)phenyl)allyl)spiro[indoline-3,4′-piperidine]-1-carboxamide] | 0.816 µM | 10 µM | 100 µM | – | –
O=C(NCc1ccnc(Cl)c1)N1CC2(CCN(C/C=C/c3ccc(C(F)(F)F)cn3)CC2)c2cc(OC(F)(F)F)ccc21 [Example 182, (E)-N-((2-chloropyridin-4-yl)methyl)-5-(trifluoromethoxy)-1′-(3-(5-(trifluoromethyl)pyridin-2-yl)allyl)spiro[indoline-3,4′-piperidine]-1-carboxamide] | 1.47 µM | 10 µM | 10 µM | – | –
COc1cc(CNC(=O)N2CC3(CCN(C/C=C/c4ccc(C(F)(F)F)cc4)CC3)c3cc(Cl)ccc32)ccn1 [Example 183, (E)-5-chloro-N-((2-methoxypyridin-4-yl)methyl)-1′-(3-(4-(trifluoromethyl)phenyl)allyl)spiro[indoline-3,4′-piperidine]-1-carboxamide] | 0.184 µM | 3.3 µM | 10 µM | – | –
